Common to all, as to assay: calcium imaging (Cal520-AM), HEK293T cells
Common to all, as to format: cell-based

One assay addresses T1, dTas2r4 (Canis lupus, UniProt A0A8I3SCV7).
T1 construct: gene TAS2R4; HEK293T-PEAKrapid cells with Galpha16i/o44
T1 sequence (A0A8I3SCV7 1-299): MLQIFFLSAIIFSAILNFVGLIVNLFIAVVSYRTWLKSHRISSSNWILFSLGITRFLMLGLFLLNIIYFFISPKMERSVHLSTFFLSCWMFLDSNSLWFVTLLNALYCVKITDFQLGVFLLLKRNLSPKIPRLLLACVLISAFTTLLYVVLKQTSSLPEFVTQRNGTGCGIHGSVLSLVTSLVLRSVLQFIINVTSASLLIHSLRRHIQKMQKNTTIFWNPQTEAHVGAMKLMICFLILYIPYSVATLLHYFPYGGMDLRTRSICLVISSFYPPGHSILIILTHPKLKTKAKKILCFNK
From the text:
calcium imaging (Cal520-AM), HEK293T cells on dTas2r4

The target of the next assay is T2, dTas2r1 (Canis lupus, UniProt Q2ABE0).
T2 construct: gene TAS2R1; HEK293T-PEAKrapid cells with Galpha16i/o44; gene on dog chromosome 34
T2 sequence (Q2ABE0 1-297): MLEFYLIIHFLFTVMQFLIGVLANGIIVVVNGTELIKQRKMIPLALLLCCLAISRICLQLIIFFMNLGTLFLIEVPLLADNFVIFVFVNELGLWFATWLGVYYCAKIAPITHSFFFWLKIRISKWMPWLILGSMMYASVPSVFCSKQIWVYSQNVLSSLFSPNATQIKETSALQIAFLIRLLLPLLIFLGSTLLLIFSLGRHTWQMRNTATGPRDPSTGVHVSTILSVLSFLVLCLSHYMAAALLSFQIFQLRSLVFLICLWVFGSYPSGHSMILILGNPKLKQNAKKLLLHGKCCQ
The conditions noted are these: agonist; Galpha16i/o44 cells; lowest concentration differing from mock cells; EC50 not determined. The source says:
calcium imaging (Cal520-AM), HEK293T cells on dTas2r1

The target in a further assay is T3, dTas2r10 (Canis lupus, UniProt Q2ABD4).
T3 construct: gene TAS2R10; HEK293T-PEAKrapid cells with Galpha16i/o44
T3 sequence (Q2ABD4 1-322): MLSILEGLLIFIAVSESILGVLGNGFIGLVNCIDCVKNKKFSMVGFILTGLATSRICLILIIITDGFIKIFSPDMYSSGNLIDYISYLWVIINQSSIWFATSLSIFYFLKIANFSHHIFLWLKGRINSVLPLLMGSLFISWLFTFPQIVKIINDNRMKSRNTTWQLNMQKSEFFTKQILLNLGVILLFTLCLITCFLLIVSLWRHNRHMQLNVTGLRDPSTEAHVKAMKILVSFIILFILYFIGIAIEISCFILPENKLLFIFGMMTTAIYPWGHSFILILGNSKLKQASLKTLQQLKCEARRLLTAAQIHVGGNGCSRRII
From the text: calcium imaging (Cal520-AM), HEK293T cells on dTas2r10

The target in another assay is T4, dTas2r41 (Canis lupus, UniProt A0A8I3NKU5).
T4 construct: gene TAS2R41; HEK293T-PEAKrapid cells with Galpha16i/o44
T4 sequence (A0A8I3NKU5 1-308): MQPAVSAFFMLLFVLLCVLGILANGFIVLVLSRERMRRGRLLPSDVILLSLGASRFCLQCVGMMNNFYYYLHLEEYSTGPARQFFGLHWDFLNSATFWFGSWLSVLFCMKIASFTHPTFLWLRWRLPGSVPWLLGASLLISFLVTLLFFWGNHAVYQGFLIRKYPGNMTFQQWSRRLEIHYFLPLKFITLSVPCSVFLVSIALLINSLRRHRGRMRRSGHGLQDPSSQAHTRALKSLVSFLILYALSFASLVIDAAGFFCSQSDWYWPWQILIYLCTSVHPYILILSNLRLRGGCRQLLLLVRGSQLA
The conditions noted are these: agonist; Galpha16i/o44 cells; lowest concentration differing from mock cells; EC50 not determined. The source says:
calcium imaging (Cal520-AM), HEK293T cells on dTas2r41

Another assay deals with T5, dTas2r5 (Canis lupus, UniProt Q2ABD6).
T5 construct: gene TAS2R5; HEK293T-PEAKrapid cells with Galpha16i/o44
T5 sequence (Q2ABD6 1-295): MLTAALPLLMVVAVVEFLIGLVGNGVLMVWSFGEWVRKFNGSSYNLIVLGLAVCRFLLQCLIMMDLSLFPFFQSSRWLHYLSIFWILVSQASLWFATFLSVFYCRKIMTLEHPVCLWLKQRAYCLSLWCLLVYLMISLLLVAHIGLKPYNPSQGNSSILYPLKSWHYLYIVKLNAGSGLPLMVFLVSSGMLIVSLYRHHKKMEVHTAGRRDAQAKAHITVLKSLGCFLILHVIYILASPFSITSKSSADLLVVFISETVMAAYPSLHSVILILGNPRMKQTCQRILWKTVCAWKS
From the text: calcium imaging (Cal520-AM), HEK293T cells on dTas2r5

Where two headings read alike, the source gives them in different places.

For the compound `O=C1NS(=O)(=O)c2cc([N+](=O)[O-])ccc21` [6-Nitrosaccharin], at dTas2r4 (read-out: dTas2r4), the EC50 worked out at 1.12 mM. Also, the dTas2r1 on dTas2r1 is 0.041 mM.

Turning to `COc1cccc2c1cc([N+](=O)[O-])c1c(C(=O)O)cc3c(c12)OCO3` [Aristolochic acid I], at dTas2r4, the EC50 was found to be 0.19 mM.

Consider `CC(=O)OC(C)(C)/C=C/C(=O)[C@](C)(O)[C@H]1[C@H](O)C[C@@]2(C)[C@@H]3CC=C4[C@@H](C[C@H](O)C(=O)C4(C)C)[C@]3(C)C(=O)C[C@]12C` [Cucurbitacin B], for which, on dTas2r10, the EC50 amounted to 0.0024 mM.

Regarding `CC[N+](CC)(CC(=O)Nc1c(C)cccc1C)Cc1ccccc1` [Denatonium benzoate], the EC50 on dTas2r4 (read-out: dTas2r4) is 4.35 mM.

Regarding `O=c1cc(-c2ccccc2)oc2ccccc12` [Flavone], the dTas2r1 on dTas2r1 is recorded as 0.00082 mM.

With `CC[N+](C)(CC)CCOC(=O)C(O)(c1ccccc1)C1CCCCC1` (stereo not drawn) [Oxyphenonium bromide], the dTas2r41 on dTas2r41 was found to be 11.11 mM. For the same compound, the EC50 on dTas2r4 (read-out: dTas2r4) amounted to 4.76 mM.

Regarding `OC[C@H]1O[C@H](O[C@]2(CCl)O[C@H](CCl)[C@@H](O)[C@@H]2O)[C@H](O)[C@@H](O)[C@H]1Cl` [Sucralose], the EC50 at dTas2r5 is 42.9 mM.

The values above are taken from publication PMC9710775, “Bitter taste sensitivity in domestic dogs (Canis familiaris) and its relevance to bitter deterrents of ingestion” (PLOS ONE, 2022).
